Data from paper PMC12751012, “Nanoscale Direct-to-Biology Optimization and Structural Insights into Selective S. aureus TrmD Inhibitors” (Journal of Medicinal Chemistry, 2025).

Biological target: T1, S. aureus TrmD (Staphylococcus aureus, UniProt Q2FZ43)
T1 construct: made in house; host or cells: E. coli BL21
T1 sequence (Q2FZ43 1-245): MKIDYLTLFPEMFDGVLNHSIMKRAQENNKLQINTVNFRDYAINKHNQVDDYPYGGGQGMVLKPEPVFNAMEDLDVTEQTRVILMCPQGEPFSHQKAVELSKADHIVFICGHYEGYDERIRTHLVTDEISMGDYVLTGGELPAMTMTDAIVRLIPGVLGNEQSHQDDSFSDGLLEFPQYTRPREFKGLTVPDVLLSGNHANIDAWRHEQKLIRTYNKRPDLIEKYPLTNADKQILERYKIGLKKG
Assay: nanoSAR direct-to-biology FP displacement screening of crude triazoles
Assay type: binding
Settings: crude triazole at 1 μM, assuming full conversion, 500 nM TrmD, 10 nM tracer 4; for inhibition at 1 µM: read-out: % displaced tracer
Method in brief: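 Crude CuAAC triazoles from alkyne 7 and 320 diverse azides were screened by FP displacement of 10 nM tracer 4 from 500 nM S. aureus TrmD. Buffer was 40 mM Tris HCl, 100 mM NaCl, 10 mM MgCl2, 5% glycerol, pH 7.5.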

Row | Structure (SMILES) | inhibition at 1 µM | % displaced tracer
1 | COC(=O)c1ccc(-n2cc(-c3c[nH]c4nc[nH]c(=O)c34)nn2)cc1 [Compound 03D08, O=C(OC)c1ccc(N2N=NC(C=3C=4C(=O)NC=NC4NC3)=C2)cc1] | 11% | –
2 | CCO[C@@H]1CCCC[C@H]1n1cc(-c2c[nH]c3nc[nH]c(=O)c23)nn1 [Compound 03D09, O=C1NC=NC=2NC=C(C=3N=NN(C3)[C@H]4[C@H](OCC)CCCC4)C12] | 25% | –
3 | O=c1[nH]cnc2[nH]cc(-c3cn(C[C@H]4COCCO4)nn3)c12 [Compound 03D10, O=C1NC=NC2=C1C(C3=CN(C[C@H]4COCCO4)N=N3)=CN2] | 57% | –
4 | O=c1[nH]cnc2[nH]cc(-c3cn(Cc4cccc(Cl)c4)nn3)c12 [Compound 03D11, Clc1cc(ccc1)CN2N=NC(C=3C=4C(=O)NC=NC4NC3)=C2] | 75% | –
5 | O=c1[nH]cnc2[nH]cc(-c3cn(C[C@H](O)C(F)(F)F)nn3)c12 [Compound 03D12, FC(F)(F)[C@@H](O)CN1N=NC(C=2C=3C(=O)NC=NC3NC2)=C1] | 71% | –
6 | O=c1[nH]cnc2[nH]cc(-c3cn([C@@H]4CCOC4)nn3)c12 [Compound 03E01, O=C1NC=NC=2NC=C(C=3N=NN(C3)[C@H]4COCC4)C12] | 27% | –
7 | CN1CC[C@@H](n2cc(-c3c[nH]c4nc[nH]c(=O)c34)nn2)C1=O [Compound 03E02, O=C1NC=NC=2NC=C(C=3N=NN(C3)[C@H]4C(=O)N(CC4)C)C12] | 27% | –
8 | CN(C)[C@@H]1CCN(CCn2cc(-c3c[nH]c4nc[nH]c(=O)c34)nn2)C1 [Compound 03E03, O=C1NC=NC=2NC=C(C=3N=NN(C3)CC[N@@H+]4C[C@H]([NH+](C)C)CC4)C12] | 40% | –
9 | O=c1[nH]cnc2[nH]cc(-c3cn(Cc4ccc(F)cc4)nn3)c12 [Compound 03E04, Fc1ccc(cc1)CN2N=NC(C=3C=4C(=O)NC=NC4NC3)=C2] | 85% | –
10 | CCNCCn1cc(-c2c[nH]c3nc[nH]c(=O)c23)nn1 [Compound 03E05, O=C1NC=NC=2NC=C(C=3N=NN(C3)CC[NH2+]CC)C12] | 87% | –
11 | O=c1[nH]cnc2[nH]cc(-c3cn(C[C@@H]4C[C@@H]4C(F)(F)F)nn3)c12 [Compound 03E06, FC(F)(F)[C@@H]1[C@H](CN2N=NC(C=3C=4C(=O)NC=NC4NC3)=C2)C1] | 34% | –
12 | N#CC1(Cn2cc(-c3c[nH]c4nc[nH]c(=O)c34)nn2)CCCCC1 [Compound 03E07, O=C1NC=NC=2NC=C(C=3N=NN(C3)CC4(C#N)CCCCC4)C12] | 69% | –
13 | O=c1[nH]cnc2[nH]cc(-c3cn(-c4cc(Cl)cc(Cl)c4)nn3)c12 [Compound 03E08, Clc1cc(Cl)cc(N2N=NC(C=3C=4C(=O)NC=NC4NC3)=C2)c1] | 23% | –
14 | O=c1[nH]cnc2[nH]cc(-c3cn(CCCN4CCOCC4)nn3)c12 [Compound 03E09, O=C1NC=NC=2NC=C(C=3N=NN(C3)CCC[NH+]4CCOCC4)C12] | 66% | –
15 | NCCCn1cc(-c2c[nH]c3nc[nH]c(=O)c23)nn1 [Compound 03E10, O=C1NC=NC=2NC=C(C=3N=NN(C3)CCC[NH3+])C12] | 68% | –
16 | O=c1[nH]cnc2[nH]cc(-c3cn(CC4CCCC4)nn3)c12 [Compound 03E11, O=C1NC=NC=2NC=C(C=3N=NN(C3)CC4CCCC4)C12] | 39% | –
17 | CN(C)c1cccc(OCCCn2cc(-c3c[nH]c4nc[nH]c(=O)c34)nn2)c1 [Compound 03E12, O=C1NC=NC=2NC=C(C=3N=NN(C3)CCCOc4cc(N(C)C)ccc4)C12] | 80% | –
18 | C[C@H](N)Cn1cc(-c2c[nH]c3nc[nH]c(=O)c23)nn1 [Compound 03F01, O=C1NC=NC=2NC=C(C=3N=NN(C3)C[C@@H]([NH3+])C)C12] | – | 56%
19 | Cc1cc(Cn2cc(-c3c[nH]c4nc[nH]c(=O)c34)nn2)no1 [Compound 03F02, O=C1NC=NC=2NC=C(C=3N=NN(C3)CC4=NOC(=C4)C)C12] | 35% | –
20 | COC(=O)c1cc(-n2cc(-c3c[nH]c4nc[nH]c(=O)c34)nn2)ccn1 [Compound 03F03, O=C(OC)c1nccc(N2N=NC(C=3C=4C(=O)NC=NC4NC3)=C2)c1] | 10% | –
21 | O=c1[nH]cnc2[nH]cc(-c3cn(-c4cccc5ccncc45)nn3)c12 [Compound 03F04, O=C1NC=NC=2NC=C(C=3N=NN(c4c5c(ccnc5)ccc4)C3)C12] | 22% | –
22 | COc1nc(OC)nc(-n2cc(-c3c[nH]c4nc[nH]c(=O)c34)nn2)n1 [Compound 03F05, O=C1NC=NC=2NC=C(C=3N=NN(c4nc(OC)nc(OC)n4)C3)C12] | 33% | –
23 | COC(=O)c1cccc2nc(Cn3cc(-c4c[nH]c5nc[nH]c(=O)c45)nn3)cn12 [Compound 03F06, O=C(OC)C=1N2C(=NC(=C2)CN3N=NC(C=4C=5C(=O)NC=NC5NC4)=C3)C=CC1] | 26% | –
24 | Cc1cc(F)ccc1[C@H](C)n1cc(-c2c[nH]c3nc[nH]c(=O)c23)nn1 [Compound 03F07, Fc1cc(c(cc1)[C@@H](N2N=NC(C=3C=4C(=O)NC=NC4NC3)=C2)C)C] | 51% | –

Row | Structure (SMILES) | inhibition at 1 µM | % displaced tracer
25 | CCC1(Cn2cc(-c3c[nH]c4nc[nH]c(=O)c34)nn2)COC1 [Compound 03F08, O=C1NC=NC=2NC=C(C=3N=NN(C3)CC4(COC4)CC)C12] | 76% | –
26 | O=c1[nH]cnc2[nH]cc(-c3cn(-c4cc(F)cc(F)c4)nn3)c12 [Compound 03F09, Fc1cc(F)cc(N2N=NC(C=3C=4C(=O)NC=NC4NC3)=C2)c1] | 25% | –
27 | Cc1ccc(-n2cc(-c3c[nH]c4nc[nH]c(=O)c34)nn2)nc1 [Compound 03F10, O=C1NC=NC=2NC=C(C=3N=NN(c4ncc(cc4)C)C3)C12] | 18% | –
28 | CC(C)(C)OC(=O)N1CCC[C@H](CCn2cc(-c3c[nH]c4nc[nH]c(=O)c34)nn2)CC1 [Compound 03F11, O=C(OC(C)(C)C)N1CC[C@@H](CCN2N=NC(C=3C=4C(=O)NC=NC4NC3)=C2)CCC1] | 71% | –
29 | O=c1[nH]cnc2[nH]cc(-c3cn(C4CNC4)nn3)c12 [Compound 03F12, O=C1NC=NC=2NC=C(C=3N=NN(C3)C4C[NH2+]C4)C12] | 42% | –
30 | COc1cccc(-n2cc(-c3c[nH]c4nc[nH]c(=O)c34)nn2)c1 [Compound 03G01, O=C1NC=NC=2NC=C(C=3N=NN(c4cc(OC)ccc4)C3)C12] | 11% | –
31 | O=c1[nH]cnc2[nH]cc(-c3cn(Cc4cnns4)nn3)c12 [Compound 03G02, S1N=NC=C1CN2N=NC(C=3C=4C(=O)NC=NC4NC3)=C2] | 73% | –
32 | Cc1nc2cc(-n3cc(-c4c[nH]c5nc[nH]c(=O)c45)nn3)ccc2[nH]1 [Compound 03G03, O=C1NC=NC=2NC=C(C=3N=NN(c4cc5N=C(Nc5cc4)C)C3)C12] | 21% | –
33 | O=c1[nH]cnc2[nH]cc(-c3cn([C@H]4CCc5cccnc54)nn3)c12 [Compound 03G04, O=C1NC=NC=2NC=C(C=3N=NN(C3)[C@@H]4c5ncccc5CC4)C12] | 49% | –
34 | Cn1ccc(-n2cc(-c3c[nH]c4nc[nH]c(=O)c34)nn2)n1 [Compound 03G05, O=C1NC=NC=2NC=C(C=3N=NN(C4=NN(C=C4)C)C3)C12] | 25% | –
35 | O=c1[nH]cnc2[nH]cc(-c3cn(-c4ccc5[nH]cnc5c4)nn3)c12 [Compound 03G06, O=C1NC=NC=2NC=C(C=3N=NN(c4cc5N=CNc5cc4)C3)C12] | 27% | –
36 | COc1ccccc1[C@H](O)Cn1cc(-c2c[nH]c3nc[nH]c(=O)c23)nn1 [Compound 03G07, O=C1NC=NC=2NC=C(C=3N=NN(C3)C[C@@H](O)c4c(OC)cccc4)C12] | 37% | –
37 | COC(=O)c1csc(Cn2cc(-c3c[nH]c4nc[nH]c(=O)c34)nn2)n1 [Compound 03G08, S1C(=NC(C(=O)OC)=C1)CN2N=NC(C=3C=4C(=O)NC=NC4NC3)=C2] | 10% | –
38 | O=c1[nH]cnc2[nH]cc(-c3cn(C4COC4)nn3)c12 [Compound 03G09, O=C1NC=NC=2NC=C(C=3N=NN(C3)C4COC4)C12] | 19% | –
39 | CN1CCN(CCn2cc(-c3c[nH]c4nc[nH]c(=O)c34)nn2)CC1 [Compound 03G10, O=C1NC=NC=2NC=C(C=3N=NN(C3)CC[N@H+]4CC[N@@H+](CC4)C)C12] | 11% | –
40 | NCc1cccc(-n2cc(-c3c[nH]c4nc[nH]c(=O)c34)nn2)c1 [Compound 03G11, O=C1NC=NC=2NC=C(C=3N=NN(c4cc(ccc4)C[NH3+])C3)C12] | 32% | –
41 | O=c1[nH]cnc2[nH]cc(-c3cn(C[C@H]4CCCNC4)nn3)c12 [Compound 03H01, O=C1NC=NC=2NC=C(C=3N=NN(C3)C[C@@H]4C[NH2+]CCC4)C12] | 56% | –
42 | CC(C)NC(=O)[C@H](C)n1cc(-c2c[nH]c3nc[nH]c(=O)c23)nn1 [Compound 03H02, O=C1NC=NC=2NC=C(C=3N=NN(C3)[C@H](C(=O)NC(C)C)C)C12] | 17% | –
43 | Cc1cccc(CCn2cc(-c3c[nH]c4nc[nH]c(=O)c34)nn2)n1 [Compound 03H03, O=C1NC=NC=2NC=C(C=3N=NN(C3)CCc4nc(ccc4)C)C12] | 26% | –
44 | O=c1[nH]cnc2[nH]cc(-c3cn([C@@H]4CCc5c(F)cccc54)nn3)c12 [Compound 03H04, Fc1c2c(ccc1)[C@H](N3N=NC(C=4C=5C(=O)NC=NC5NC4)=C3)CC2] | 68% | –
45 | O=c1[nH]cnc2[nH]cc(-c3cn(CCCN4CCCC4)nn3)c12 [Compound 03H05, O=C1NC=NC=2NC=C(C=3N=NN(C3)CCC[NH+]4CCCC4)C12] | 40% | –
46 | COC(=O)C1(n2cc(-c3c[nH]c4nc[nH]c(=O)c34)nn2)CC1 [Compound 03H06, O=C(OC)C1(N2N=NC(C=3C=4C(=O)NC=NC4NC3)=C2)CC1] | 24% | –
47 | O=c1[nH]cnc2[nH]cc(-c3cn(CCCc4ccccc4)nn3)c12 [Compound 03H07, O=C1NC=NC=2NC=C(C=3N=NN(C3)CCCc4ccccc4)C12] | 61% | –
